From patent US20240082203A1, “PHARMACEUTICAL COMPOSITION FOR INHALATION” (SHANGHAI HUILUN BIOLOGICAL TECHNOLOGY CO., LTD., priority 2020, published 2024)

Tests used:
[1] = lyophilized preparation of Document 5 (anhydrous sodium carbonate, sodium chloride) kept at 60° C. for two weeks, per Document 4; cited from earlier work
physchem = type: physicochemical; details: water
Method: The solubility of sivelestat sodium in water is less than 0.4 mg/mL, which cannot meet the administration requirements as an injection or inhalation preparation. Besides, sivelestat sodium is prone to hydrolysis in aqueous solution, generating the impurity with the following structure (hereinafter referred to as “impurity A”).

CC(C)(C)C(=O)Oc1ccc(S(=O)(=O)Nc2ccccc2C(=O)NCC(=O)O)cc1 [sivelestat sodium, N-[2-[[[4-(2,2-dimethyl-1-oxopropoxy)phenyl]sulfonyl]amino]benzoyl]-(S)-glycine]
residual rate of sivelestat sodium [1]: 91.4%
solubility (physchem): < 400 µg/mL
